# Source: patent publication US5770573A, “CS-1 peptidomimetics, compositions and methods of using the same” (Cytel Corporation, priority 1995, dated 1998)
# Square brackets hold non-standard residues; d marks the D form. Peptide text beside a SMILES is read from it. * marks the point of attachment. PhAc = O=C(Cc1ccccc1)*
# Columns and labels:
# asthmatic sheep = experiment: Treatment of asthmatic sheep (Ascaris suum antigen); format: in vivo; settings: 24 hours after challenge; pre-challenge about 20-23 BU
# Experimental: Six asthmatic sheep were treated in a double blind cross-over study. […] This study was carried out generally as described in Abraham et al., J. Clin. Invest., 93:776-787 (1994).
# The inhibitor compound used here was Compound ID No. 896.52, N-phenylacetyl-Leu-Asp-Phe-D-Pro-NH2, with a control compound that comprised the previously described compound having the same residues in a scrambled sequence. The vehicle for the nebulized compounds was phosphate-buffered saline. The compounds were administered at a dose of 1 mg/kg each, twice a day for three days prior to challenge, as well as 0.5 hours prior to and four hours post challenge on day 4. Because this was a crossover study, each animal received one or the other treatment, followed by a rest and then the other treatment. Each animal therefore served as its own control.
# Post challenge airway responsiveness was also assayed. Here, specific lung resistance, SRL, returned to baseline values 24 hours after challenge, however, the sheep were hyperresponsive to inhaled carbachol at that time.
# VLA-4 = VLA-4 (Homo sapiens, UniProt P05556+P13612); experiment: In vitro binding inhibition of 51Cr-labeled Jurkat cells to solid phase-bound CS-1 compound (SEQ ID NO:1); format: cell-based; parameters: inflammatory cells that contain the VLA-4 receptor [Jurkat cells; host or cells: Jurkat (human T lymphoblastic line)
# Sequence of VLA-4 (P13612 34-1032): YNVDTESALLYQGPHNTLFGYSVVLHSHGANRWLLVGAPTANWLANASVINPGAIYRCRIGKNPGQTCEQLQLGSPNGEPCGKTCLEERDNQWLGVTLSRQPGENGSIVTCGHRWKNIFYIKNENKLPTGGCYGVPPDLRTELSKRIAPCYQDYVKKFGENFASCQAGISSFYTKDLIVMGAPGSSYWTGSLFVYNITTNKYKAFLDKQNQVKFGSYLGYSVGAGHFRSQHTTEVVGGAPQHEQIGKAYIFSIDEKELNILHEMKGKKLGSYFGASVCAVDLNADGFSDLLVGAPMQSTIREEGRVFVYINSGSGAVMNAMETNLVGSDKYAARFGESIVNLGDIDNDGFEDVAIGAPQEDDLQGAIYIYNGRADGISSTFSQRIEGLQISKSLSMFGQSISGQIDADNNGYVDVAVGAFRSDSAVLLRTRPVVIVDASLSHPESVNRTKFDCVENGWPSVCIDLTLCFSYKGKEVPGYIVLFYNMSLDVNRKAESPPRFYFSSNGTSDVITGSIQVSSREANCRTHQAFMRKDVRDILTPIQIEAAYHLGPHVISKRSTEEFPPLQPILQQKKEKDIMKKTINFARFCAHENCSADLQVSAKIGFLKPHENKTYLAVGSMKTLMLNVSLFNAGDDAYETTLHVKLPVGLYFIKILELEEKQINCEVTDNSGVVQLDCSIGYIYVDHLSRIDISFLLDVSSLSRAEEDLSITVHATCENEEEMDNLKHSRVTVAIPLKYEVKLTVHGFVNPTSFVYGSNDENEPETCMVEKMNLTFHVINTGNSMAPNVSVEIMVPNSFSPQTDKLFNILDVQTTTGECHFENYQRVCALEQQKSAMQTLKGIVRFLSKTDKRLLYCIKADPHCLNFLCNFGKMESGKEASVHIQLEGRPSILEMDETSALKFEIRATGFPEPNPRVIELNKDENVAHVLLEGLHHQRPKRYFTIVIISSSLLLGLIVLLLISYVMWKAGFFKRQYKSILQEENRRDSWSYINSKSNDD
# Sequence of VLA-4 (P05556 21-798): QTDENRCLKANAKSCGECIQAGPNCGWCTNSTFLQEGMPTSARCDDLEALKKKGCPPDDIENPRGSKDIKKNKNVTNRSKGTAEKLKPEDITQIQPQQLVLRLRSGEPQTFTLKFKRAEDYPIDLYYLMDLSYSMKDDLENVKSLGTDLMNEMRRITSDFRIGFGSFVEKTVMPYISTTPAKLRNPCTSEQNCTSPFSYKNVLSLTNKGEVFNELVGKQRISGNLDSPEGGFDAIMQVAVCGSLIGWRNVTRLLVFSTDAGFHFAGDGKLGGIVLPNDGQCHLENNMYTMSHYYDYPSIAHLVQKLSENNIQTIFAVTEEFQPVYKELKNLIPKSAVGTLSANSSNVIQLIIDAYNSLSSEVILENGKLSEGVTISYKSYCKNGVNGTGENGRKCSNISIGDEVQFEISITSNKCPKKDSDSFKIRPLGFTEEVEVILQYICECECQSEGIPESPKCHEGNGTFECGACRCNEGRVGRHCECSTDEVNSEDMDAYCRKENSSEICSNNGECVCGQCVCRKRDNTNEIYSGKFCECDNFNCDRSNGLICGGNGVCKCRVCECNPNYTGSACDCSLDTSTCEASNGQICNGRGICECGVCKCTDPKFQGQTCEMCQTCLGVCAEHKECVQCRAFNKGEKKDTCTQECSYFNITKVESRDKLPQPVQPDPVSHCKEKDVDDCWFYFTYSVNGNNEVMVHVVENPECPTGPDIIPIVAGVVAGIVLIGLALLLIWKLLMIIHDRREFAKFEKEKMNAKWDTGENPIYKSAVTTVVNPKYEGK
# Method in brief: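 51Cr-labeled human Jurkat cells were preincubated with compound 30 min at about 22° C, then allowed to bind to wells coated with CS-1 peptide or CS-1-OVA for 30 min at 37° C. After washing, bound cells were lysed with SDS and counted. IC50 is the concentration halving binding, normalized to SEQ ID NO: 3.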
smiles,measurement,setting,value
"CC(C)C[C@H](NC(=O)[C@H](CC(=O)O)NC(=O)Cc1ccccc1)C(=O)N[C@@H](Cc1ccccc1)C(=O)N1CCC[C@@H]1C(N)=O [Compound ID No. 1066.02, N-phenylacetyl-Asp-Leu-Phe-D-Pro-NH2, reference compound] (PhAc-DLF[dP]-NH2)","PC400, carbachol dosage to increase SRL 4-fold",asthmatic sheep,about 12 BU
same,Relative Potency,"VLA-4; binding inhibition potency relative to standard compound of SEQ ID NO:3 = 1 (normalized IC50), about one-tenth or less assigned zero",0
same,VLA-4 binding inhibition compared in words,VLA-4; compared with standard 10-mer of SEQ ID NO:3,no inhibition of VLA-4
